# Active and inactive are the calls of the source. The calls are words filed in the database; no cut-off is given here.
# Assays:
# [1] = Growth inhibition of human RCC4 cells after 4 days by XTT assay; type: functional, cell-based; conditions: RCC4, 96 h
# [2] = Growth inhibition of human RCC4/VHL cells after 4 days by XTT assay; type: functional, cell-based; conditions: 96 h
# [3] = Selectivity ratio IC50 for human RCC4/VHL cells to IC50 for human RCC4 cells; type: functional
# [4] = system: RCC4; assay: Induction of autophagy in human RCC4 cells assessed as formation of intracytoplasmic vacuoles at 5 uM after 24 hrs by phase contrast microscopy; type: functional, cell-based
SMILES,IC50 ([1]; read-out: IC50) [µM],IC50 ([1]; read-out: pIC50 (converted)) [µM],IC50 [2] [µM],Ratio IC50 [3],Activity [4]
Cc1cccc(Nc2nc(-c3ccncc3OCCCN(C)C)cs2)c1,2.7,2.75,20.2,7.4,Active
Cc1cccc(Nc2nc(-c3ccnc4ccccc34)cs2)c1,12.3,12.3,20,1.6,
Cc1cccc(Nc2nc(-c3ccnc(OCCCN(C)C)c3)cs2)c1,6,6.03,8.8,1.5,
Cc1cccc(Nc2nc(-c3ccnc(-c4cnn(Cc5ccccc5)c4)c3)cs2)c1,2.2,2.24,66.1,30,Active
CC(=O)c1ccc(-c2cc(-c3csc(Nc4cccc(C)c4)n3)ccn2)cc1,38.8,38.9,33.4,0.9,
Cc1cccc(Nc2nc(-c3ccncc3-c3ccc(S(=O)(=O)NC(C)(C)C)cc3)cs2)c1,4.5,4.57,22.5,5,
Cc1cccc(Nc2nc(-c3ccnc(-c4cnn(C)c4)c3)cs2)c1,5.2,5.25,8.1,1.6,
Cc1cccc(Nc2nc(-c3ccncc3)n[nH]2)c1,28.7,28.8,22.2,0.8,
Cc1cccc(Nc2nc(-c3ccnc(-c4ccsc4)c3)cs2)c1,8.7,8.71,> 40,>4.6,
Cc1cccc(Nc2nc(-c3ccncc3-c3ccc(C(=O)N4CCN(C)CC4)cc3)cs2)c1,12.8,12.9,> 40,>3.1,
Cc1cccc(Nc2nc(-c3ccnc(NCCN4CCOCC4)c3)cs2)c1,3.7,3.72,8,2.2,
Cc1cccc(Nc2nc(-c3ccncc3N3CCN(C)CC3)cs2)c1,2.6,2.63,6.6,2.5,
Cc1cccc(Nc2nc(-c3ccncc3)cs2)c1,2.1,2.14,40,19,Active
Cc1cccc(Nc2cc(-c3ccncc3)ncn2)c1,23.1,23.4,28.1,1.2,
Cc1cccc(Nc2nc(-c3ccncc3C#CCN3CCOCC3)cs2)c1,0.57,0.575,2.3,4,Active
Cc1cccc(Nc2nc(-c3ccncc3-c3ccncc3)cs2)c1,13.8,13.8,34,2.5,

SMILES,IC50 ([1]; read-out: IC50) [µM],IC50 ([1]; read-out: pIC50 (converted)) [µM],IC50 [2] [µM],Ratio IC50 [3],Activity [4]
Cc1cccc(Nc2nc(-c3ccnc(-c4ccncc4)c3)cs2)c1,28.9,29.5,38,1.3,
Cc1cccc(Nc2nc(-c3ccncc3NCCN3CCOCC3)cs2)c1,19.5,19.5,27.9,1.4,
Cc1cccc(Nc2nc(-c3ccnc(-c4c(C)noc4C)c3)cs2)c1,3,3.02,36.5,12,
Cc1cccc(Nc2nc(-c3c(C)nc4ccccn34)cs2)c1,9.5,9.55,29.8,3.1,
Cc1cccc(Nc2nc(-c3ccncc3OCCN3CCOCC3)cs2)c1,0.32,0.324,0.88,2.8,
Cc1cccc(Nc2cccc(-c3ccncc3)n2)c1,7.4,7.41,> 40,>5.4,
Cc1cccc(Nc2cncc(-c3ccncc3)n2)c1,8.5,8.51,31.8,3.7,
Cc1cccc(Nc2nc(-c3ccncc3C#CCN3CCN(C)CC3)cs2)c1,2.6,2.63,2.2,0.9,
Cc1cccc(Nc2cccc(-c3ccncc3)c2)c1,36.9,37.2,38.1,1,
Cc1cccc(Nc2nc(-c3ccncc3-c3ccc(C(=O)NCCCN(C)C)cc3)cs2)c1,4,4.07,3.9,1,
Cc1cccc(Nc2nc(-c3ccnc(-c4cccc5[nH]ccc45)c3)cs2)c1,3.1,3.16,4.5,1.5,
Cc1cccc(Nc2nc(-c3cnn4ccccc34)cs2)c1,> 40,40.7,15.3,<0.4,
Cc1cccc(Nc2nc(-c3ccnc(-c4cc[nH]n4)c3)cs2)c1,0.48,0.49,20,,Active
Cc1cccc(Nc2nc(-c3ccncc3-c3ccc(C(F)(F)F)cc3)cs2)c1,12.8,12.9,22.6,1.8,
Cc1cccc(Nc2nc(-c3ccncc3C#CCCO)cs2)c1,1.1,1.1,2.8,2.5,
